Where “and” joins values, the source holds several entries; their conditions need not be identical. Equal entries are not always repeated. Structures can show the parent of a compound that is named as a salt.
Tests used:
Assay type in all cases: physicochemical
[1] = Thermodynamic solubility test (saturated solution, gravimetric); details: for Solubility, Average: average of three determinations; for Solubility compared to oclacitinib maleate form A: form A normalized to 100% (FIG. 16); for Solubility: single determination, saturated solution, 15 minutes stirring (600 rpm), 15 minute equilibrium, 0.2 μm filter
Description: The thermodynamic solubility of different forms of oclacitinib maleate was tested by generating a saturated solution for each form (i.e. oclacitinib maleate form A, amorphous oclacitinib maleate and monohydrate form of oclacitinib maleate). After 15 minutes of stirring (600 rpm) and further 15 minute of an equilibrium phase the solution was filtrated over an 0.2 μm syringe filter into a vial with a known weight.
Subsequently, the solvent was allowed to evaporate and the vial was then weighted again.

[2] = Stability tests of solid forms (storage, solid form analysed by XRPD); details: for Relative humidity at which the solid form is stable / can be stored: general statement in description
Description: The stability of the solid forms of oclacitinib obtained was tested at three different conditions, i.e. storage at 25° C. at 0% relative humidity, 40° C. at 75% rH and 25° C. at 100% rH. Alternatively or additionally, the stability of the solid forms of oclacitinib obtained was tested at 25° C. at 25% rH.

[3] = Hygroscopicity of solid state form; details: general statement in description
[4] = relatively high humidity, 25° C. at 100% rH
[5] = relatively high humidity, 40° C. at 75% rH
[6] = relatively low humidity, 25° C. at 0% rH

Row | SMILES | Solubility, Average [1] [mg/mL] | Solubility [1] | Solid form found after storage ([2]; 25° C./0% rH, Week 1) | Solid form found after storage ([2]; 25° C./0% rH, Week 4) | Solid form found after storage ([2]; 25° C./100% rH, Week 1) | Solid form found after storage ([2]; 25° C./100% rH, Week 4) | Solid form found after storage ([2]; 40° C./75% rH, Week 1) | Solid form found after storage ([2]; 40° C./75% rH, Week 4) | further results
1 | CNS(=O)(=O)C[C@H]1CC[C@H](N(C)c2ncnc3[nH]ccc23)CC1 [Amorphous, amorphous oclacitinib maleate] | 37.834 | 37.095 mg/mL and 37.430 mg/mL and 38.976 mg/mL | – | – | – | – | – | – | Solubility compared to oclacitinib maleate form A ([1]; listed as amorphous form of oclacitinib maleate): more than twice as soluble
2 | CNS(=O)(=O)C[C@H]1CC[C@H](N(C)c2ncnc3[nH]ccc23)CC1 [Form A, N-methyl(4-(methyl(7H-pyrrolo[2,3-d]pyrimidin-4-yl)amino)cyclohexyl)methanesulfonamide maleic acid salt, reference compound] | 17.135 | 16.914 mg/mL and 16.690 mg/mL and 17.802 mg/mL | – | – | – | – | – | – | Relative humidity at which the solid form is stable / can be stored ([2]; listed as oclacitinib maleate form A): at most 30%
3 | CNS(=O)(=O)C[C@H]1CC[C@H](N(C)c2ncnc3[nH]ccc23)CC1 [example 8, amorphous oclacitinib maleate] | – | – | – | – | – | – | – | – | Change of solid state on storage (XRPD) ([2]; 25° C. at 0% rH, after 2 weeks): remains stable; Change of solid state on storage (XRPD) ([2]; 25° C. at 25% rH, 3 weeks): does not show any change of solid state; Change of solid state on storage (XRPD) ([2]; 25° C. at 100% rH, after 2 weeks): conversion (intermediate graphs) of the amorphous phase to the monohydrate form of oclacitinib maleate; Change of solid state on storage (XRPD) ([2]; 40° C. at 75% rH, after 2 weeks): conversion (intermediate graphs) of the amorphous phase to the monohydrate form of oclacitinib maleate
4 | CNS(=O)(=O)C[C@H]1CC[C@H](N(C)c2ncnc3[nH]ccc23)CC1 [example 9, amorphous oclacitinib maleate] | – | – | – | – | – | – | – | – | Change of solid state on storage (XRPD) ([2]; 25° C. at 25% rH, 3 weeks): mixture (upper graph) comprising amorphous oclacitinib maleate and oclacitinib maleate form A
5 | CNS(=O)(=O)C[C@H]1CC[C@H](N(C)c2ncnc3[nH]ccc23)CC1 [monohydrate form of oclacitinib maleate] | 8.994 | 9.053 mg/mL and 9.047 mg/mL and 8.884 mg/mL | Monohydrate | Monohydrate | Monohydrate | Monohydrate | Monohydrate | Monohydrate | Stability of solid form ([2]; all three storage conditions (25° C./0% rH, 40° C./75% rH, 25° C./100% rH)): stable under all storage conditions; Stability of solid state with respect to relative humidity, in words ([2]; low (<50% rH) and high (>50% rH) relative humidity): stable by any relative humidity of the surrounding air; Solubility compared to oclacitinib maleate form A [1]: halved
6 | CNS(=O)(=O)C[C@H]1CC[C@H](N(C)c2ncnc3[nH]ccc23)CC1 [oclacitinib maleate form B] | – | – | Form B | Form A | Form B | Form B | Form B | Form B | Hygroscopicity [3]: non-hygroscopic; Solid form found after storage ([2]; 25° C./0% rH, Week 12): Form A; Solid form found after storage ([2]; 25° C./100% rH, Week 12): Form B; Solid form found after storage ([2]; 40° C./75% rH, Week 12): Form B; Relative humidity at which the solid form is stable / can be stored [2]: at least 30%; Stability of solid form [2, 4]: is stable; Stability of solid form [2, 5]: is stable; Stability of solid form [2, 6]: converses into oclacitinib maleate form A
7 | CNS(=O)(=O)C[C@H]1CC[C@H](N(C)c2ncnc3[nH]ccc23)CC1 [tetramethyl urea solvate form of oclacitinib maleate] | – | – | TMU solvate | TMU solvate | Form B | Form B | Form B | Form B | Solid form found after storage ([2]; 25° C./0% rH, Week 12): TMU solvate; Solid form found after storage ([2]; 25° C./100% rH, Week 12): Form B; Solid form found after storage ([2]; 40° C./75% rH, Week 12): Form B; Stability of solid form [2, 4]: converses into oclacitinib maleate form B; Stability of solid form [2, 5]: converses into oclacitinib maleate form B; Stability of solid form [2, 6]: is stable
